From patent US7923452B2, “Fungicidal mixtures comprising boscalid and pyrimethanil” (BASF SE, priority 2005, dated 2011) come the findings set out here.

The assay has as its system Puccinia recondita. Kind of assay: Protective activity against Puccinia recondita on wheat (brown rust of wheat) (Puccrt P1). The settings on record: single active compound, protective spray 1 day before inoculation, efficacy in % of untreated control (Abbot), read-out: Observed activity (%). The assay is classed as in vivo, Puccinia recondita on wheat seedlings cultivar "Kanzler". The protocol: The active compounds, separately or jointly, were prepared as a stock solution comprising 25 mg of active compound which was made up to 10 ml using a mixture of acetone and/or dimethyl sulfoxide and the emulsifier Uniperol® EL (wetting agent having an emulsifying and dispersing action based on ethoxylated alkylphenols) in a ratio by volume of solvent/emulsifier of 99:1. The mixture was then made up to 100 ml with water. This stock solution was diluted with the solvent/emulsifier/water mixture described to give the concentration of active compound stated below.
The visually determined percentages of infected leaf areas were converted into efficacies in % of the untreated control:
The efficacy (E) is calculated as follows using Abbot's formula. W=(1−α/β)·100 α corresponds to the fungicidal infection of the treated plants in % and β corresponds to the fungicidal infection of the untreated (control) plants in %
At an efficacy of 0, the infection level of the treated plants corresponds to that of the untreated control plants; at an efficacy of 100, the treated plants are not infected.
The expected efficacies of active compound mixtures were determined using Colby's formula (S. R. Colby, “Calculating synergistic and antagonistic responses of herbicide combinations”, Weeds 15, 20-22 (1967)) and compared with the observed efficacies.
Colby's formula: E=x+y−x−y/100 • E expected efficacy, expressed in % of the untreated control, when using the mixture of the active compounds A and B at the concentrations a and b; • x efficacy, expressed in % of the untreated control, when using the active compound A at the concentration a; • y efficacy, expressed in % of the untreated control, when using the active compound B at the concentration b;
Leaves of potted wheat seedlings of the cultivar “Kanzler” were sprayed to runoff point with an aqueous suspension having the concentration of active compound stated below. […] The extent of the rust fungus development on the leaves was then determined visually.

Regarding `O=C(Nc1ccccc1-c1ccc(Cl)cc1)c1cccnc1Cl` [Boscalid, boscalid], the inhibition at 8 ppm (8 ppm) came out at 22%.
`Cc1cc(C)nc(Nc2ccccc2)n1` [Pyrimethanil, pyrimethanil]: the inhibition at 2 ppm (2 ppm) came to 0%. Where the note is “4 ppm”, the inhibition at 4 ppm was 0%.
